Measurements reported in patent US7820817B2, “Modulators of muscarinic receptors” (Vertex Pharmaceuticals Incorporated, priority 2004, dated 2010).

Tested on: at least one muscarinic receptor, M1, M2, M3, M4
Experiment: Muscarinic modulation activity (Table 3)
Format: cell-based
Set-up: key: +++: exhibited muscarinic modulation activity for at least one muscarinic receptor, M1, M2, M3, M4, at a concentration of less than 5 μM; ++: exhibited muscarinic modulation activity for at least one muscarinic receptor, M1, M2, M3, M4, at a concentration of between 30 μM and 5 μM; +: exhibited muscarinic modulation activity for at least one muscarinic receptor, M1, M2, M3, M4, at a concentration of greater than 30 μM; −: were not assayed or did not exhibit muscarinic modulation activity for at least one muscarinic receptor, M1, M2, M3, M4, at the concentration at which the assay was performed
Settings: concentration at which modulation of at least one muscarinic receptor, M1, M2, M3, M4, was exhibited; CHO cells
Summary of the method: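 CHO cells expressing M1–M5 loaded with Fluo-3 AM or Calcium 3 dye plus 1 mM probenecid; FLIPR fluorescence read for 60 sec after compound addition (agonist mode) or after 15 min pre-incubation then carbachol at EC80 (inhibition mode); 0.5% DMSO final.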

Row | SMILES | ACTIVITY (muscarinic modulation activity)
1 | Clc1cccnc1N1CCN(C2CC3CCC2C3)CC1 (stereo not shown) [Compound 7, 1-(3-chloro-2-pyridyl)-4-norbornan-2-yl-piperazine] | +++ (exhibited muscarinic modulation activity for at least one muscarinic receptor, M1, M2, M3, M4, at a concentration of less than 5 μM)
2 | N#Cc1ccc(C(F)(F)F)nc1N1CCN(CC2CC3C=CC2C3)CC1 (stereo not shown) [Compound 53, 2-[4-(5-bicyclo[2.2.1]hept-2-enylmethyl)piperazin-1-yl]-6-(trifluoromethyl)nicotinonitrile] | + (exhibited muscarinic modulation activity for at least one muscarinic receptor, M1, M2, M3, M4, at a concentration of greater than 30 μM)
3 | Cc1cccnc1N1CCN(C2CC3CCC2C3)CC1 (stereo not shown) [Compound 60, 1-(3-methyl-2-pyridyl)-4-norbornan-2-yl-piperazine] | + (exhibited muscarinic modulation activity for at least one muscarinic receptor, M1, M2, M3, M4, at a concentration of greater than 30 μM)
4 | CCOC(=O)N1C2CCC1CC(N1CCN(c3nnc(-c4ccccc4)cc3C#N)CC1)C2 (stereo not shown) [Compound 11, 3-[4-(4-cyano-6-phenyl-pyridazin-3-yl)piperazin-1-yl]-8-azabicyclo[3.2.1]octane-8-carboxylic acid ethyl ester] | + (exhibited muscarinic modulation activity for at least one muscarinic receptor, M1, M2, M3, M4, at a concentration of greater than 30 μM)
5 | CCOC(=O)N1C2CCC1CC(N1CCN(c3ccc(C(N)=O)cn3)CC1)C2 (stereo not shown) [Compound 36, 3-[4-(5-carbamoyl-2-pyridyl)piperazin-1-yl]-8-azabicyclo[3.2.1]octane-8-carboxylic acid ethyl ester] | +++ (exhibited muscarinic modulation activity for at least one muscarinic receptor, M1, M2, M3, M4, at a concentration of less than 5 μM)
6 | c1ccc2c(c1)nnn2C1CCN(C2CC3CCC(C3)C2)CC1 (stereo not shown) [Compound 9, 1-[1-(3-bicyclo[3.2.1]octyl)-4-piperidyl]-1H-benzotriazole] | −
7 | CCOC(=O)N1C2CCC1CC(N1CCN(c3ncc(CC)cn3)CC1)C2 (stereo not shown) [Compound 67, 3-[4-(5-ethylpyrimidin-2-yl)piperazin-1-yl]-8-azabicyclo[3.2.1]octane-8-carboxylic acid ethyl ester] | +++ (exhibited muscarinic modulation activity for at least one muscarinic receptor, M1, M2, M3, M4, at a concentration of less than 5 μM)
8 | N#Cc1ccc(C(F)(F)F)nc1N1CCN(C2CC3CCC2C3)CC1 (stereo not shown) [Compound 3, 2-(4-norbornan-2-ylpiperazin-1-yl)-6-(trifluoromethyl)nicotinonitrile] | + (exhibited muscarinic modulation activity for at least one muscarinic receptor, M1, M2, M3, M4, at a concentration of greater than 30 μM)
9 | N#Cc1cccnc1N1CCN(C2CC3CCC(C3)C2)CC1 (stereo not shown) [Compound 27, 2-[4-(3-bicyclo[3.2.1]octyl)piperazin-1-yl]nicotinonitrile] | + (exhibited muscarinic modulation activity for at least one muscarinic receptor, M1, M2, M3, M4, at a concentration of greater than 30 μM)
10 | Cc1cnc(C)c(N2CCN(CC3CC4C=CC3C4)CC2)n1 (stereo not shown) [Compound 16, 3-[4-(5-bicyclo[2.2.1]hept-2-enylmethyl)piperazin-1-yl]-2,5-dimethyl-pyrazine] | +++ (exhibited muscarinic modulation activity for at least one muscarinic receptor, M1, M2, M3, M4, at a concentration of less than 5 μM)
11 | FC(F)(F)c1cccnc1N1CCN(CC2CC3C=CC2C3)CC1 (stereo not shown) [Compound 69, 1-(5-bicyclo[2.2.1]hept-2-enylmethyl)-4-[3-(trifluoromethyl)-2-pyridyl]-piperazine] | +++ (exhibited muscarinic modulation activity for at least one muscarinic receptor, M1, M2, M3, M4, at a concentration of less than 5 μM)
12 | N#Cc1nccnc1N1CCN(CC2CC3C=CC2C3)CC1 (stereo not shown) [Compound 70, 3-[4-(5-bicyclo[2.2.1]hept-2-enylmethyl)piperazin-1-yl]pyrazine-2-carbonitrile] | +++ (exhibited muscarinic modulation activity for at least one muscarinic receptor, M1, M2, M3, M4, at a concentration of less than 5 μM)
13 | N#Cc1cccnc1N1CCN(C2C3CC4CC(C3)CC2C4)CC1 (stereo not shown) [Compound 2, 2-[4-(2-adamantyl)piperazin-1-yl]nicotinonitrile] | ++ (exhibited muscarinic modulation activity for at least one muscarinic receptor, M1, M2, M3, M4, at a concentration of between 30 μM and 5 μM)
14 | N#Cc1cc(-c2ccccc2)nnc1N1CCN(CC2CC3CCC2C3)CC1 (stereo not shown) [Compound 59, 3-[4-(norbornan-2-ylmethyl)piperazin-1-yl]-6-phenyl-pyridazine-4-carbonitrile] | + (exhibited muscarinic modulation activity for at least one muscarinic receptor, M1, M2, M3, M4, at a concentration of greater than 30 μM)
15 | NC(=O)c1ccc(N2CCN(CC3CC4CCC3C4)CC2)nc1 (stereo not shown) [Compound 14, 6-[4-(norbornan-2-ylmethyl)piperazin-1-yl]nicotinamide] | −
16 | N#Cc1nccnc1N1CCN(CC2CCC3CCC2C3)CC1 (stereo not shown) [Compound 23, 3-[4-(4-bicyclo[3.2.1]octylmethyl)piperazin-1-yl]pyrazine-2-carbonitrile] | −
